Patent US20080009418A1, “Selective Inhibitors” (Alchemia LTD., priority 2004, published 2008)

What was measured:
[1] = molecular target: T1, Human Melanocortin (MC4) (Homo sapiens, UniProt P32245); assay: Radioligand binding, human melanocortin MC4 membranes, FlashPlate, [125I]-NDP-αMSH; details: compound at 10 μM; [125I]-NDP-αMSH, human MC4 membranes
T1 construct: purchased Perkin Elmer Biosignal
Outline: (§1)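 Cloned human receptor membranes were coated onto FlashPlate wells and incubated with radioligand and compound (added from a 0.5 mM DMSO daughter plate) for 1 hour at room temperature in the dark. Scintillation counting gave percent inhibition, with DMSO defining total and reference ligand defining non-specific binding.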

[2] = molecular target: T2, Human δ-opioid (DOP) (Homo sapiens, UniProt P41143); assay: Radioligand binding, human δ-opioid (DOP) membranes, FlashPlate, [3H]-Bremazocine; details: compound at 10 μM; [3H]-Bremazocine, human DOP membranes
T2 construct: purchased Perkin Elmer Biosignal
T2 sequence (P41143 whole entry): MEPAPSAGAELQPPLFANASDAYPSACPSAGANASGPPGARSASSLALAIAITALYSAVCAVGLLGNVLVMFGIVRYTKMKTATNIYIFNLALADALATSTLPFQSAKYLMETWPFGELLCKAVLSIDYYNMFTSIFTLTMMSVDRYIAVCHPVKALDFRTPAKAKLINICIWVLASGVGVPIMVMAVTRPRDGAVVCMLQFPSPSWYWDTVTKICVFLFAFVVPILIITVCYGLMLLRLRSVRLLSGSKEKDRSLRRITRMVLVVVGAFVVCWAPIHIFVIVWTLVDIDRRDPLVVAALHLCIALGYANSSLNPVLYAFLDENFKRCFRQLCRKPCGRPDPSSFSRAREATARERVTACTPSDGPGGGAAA
Outline: as §1

[3] = molecular target: T3, Human opioid (ORL1) (Homo sapiens, UniProt P41146); assay: Radioligand binding, human opioid ORL1 membranes, FlashPlate, [125I]-Nociceptin; details: compound at 10 μM; [125I]-Nociceptin, human ORL1 membranes
T3 construct: purchased Perkin Elmer Biosignal
T3 sequence (P41146 whole entry): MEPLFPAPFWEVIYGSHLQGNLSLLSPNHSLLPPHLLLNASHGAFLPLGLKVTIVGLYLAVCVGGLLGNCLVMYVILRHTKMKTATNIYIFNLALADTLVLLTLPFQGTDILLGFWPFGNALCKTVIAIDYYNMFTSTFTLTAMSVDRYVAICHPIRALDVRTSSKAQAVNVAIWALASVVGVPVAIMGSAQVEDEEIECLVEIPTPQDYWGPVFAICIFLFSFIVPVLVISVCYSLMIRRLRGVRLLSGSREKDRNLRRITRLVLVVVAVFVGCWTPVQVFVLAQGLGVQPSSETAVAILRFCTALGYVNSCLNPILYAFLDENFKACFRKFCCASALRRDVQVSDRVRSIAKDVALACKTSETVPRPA
Outline: as §1

[4] = molecular target: T4, Human κ-Opioid (KOP) (Homo sapiens, UniProt P41145); assay: Radioligand binding, human κ-opioid (KOP) membranes, filtration, [3H]-Diprenorphine; details: compound at 10 μM; [3H]-Diprenorphine, human KOP membranes
T4 construct: purchased Perkin Elmer Biosignal
T4 sequence (P41145 whole entry): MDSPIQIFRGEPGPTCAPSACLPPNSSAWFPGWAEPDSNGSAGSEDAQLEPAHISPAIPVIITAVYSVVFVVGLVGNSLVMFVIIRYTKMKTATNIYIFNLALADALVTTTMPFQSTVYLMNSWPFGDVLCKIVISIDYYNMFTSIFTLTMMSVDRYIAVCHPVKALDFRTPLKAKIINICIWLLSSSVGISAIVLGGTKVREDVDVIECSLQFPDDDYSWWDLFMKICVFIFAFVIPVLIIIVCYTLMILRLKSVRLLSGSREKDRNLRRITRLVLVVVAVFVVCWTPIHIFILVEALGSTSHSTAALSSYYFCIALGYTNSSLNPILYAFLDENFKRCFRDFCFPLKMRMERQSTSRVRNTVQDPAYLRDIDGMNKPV
Outline: (§2)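 Membranes from cloned human receptors were incubated with compound and radioligand for 1 hour at room temperature. Bound ligand was collected on 0.3% PEI-soaked filters, washed with cold 50 mM Tris-HCl pH 7.4, and counted by scintillation. Percent inhibition was computed against DMSO totals and reference-ligand nonspecific wells.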

[5] = molecular target: T5, Human melanin-concentrating hormone (MCH1) (Homo sapiens, UniProt Q99705); assay: Radioligand binding, human melanin-concentrating hormone MCH1 membranes, FlashPlate, [125I]-S36057; details: compound at 10 μM; [125I]-S36057, human MCH1 membranes
T5 construct: purchased Perkin Elmer Biosignal
T5 sequence (Q99705 whole entry): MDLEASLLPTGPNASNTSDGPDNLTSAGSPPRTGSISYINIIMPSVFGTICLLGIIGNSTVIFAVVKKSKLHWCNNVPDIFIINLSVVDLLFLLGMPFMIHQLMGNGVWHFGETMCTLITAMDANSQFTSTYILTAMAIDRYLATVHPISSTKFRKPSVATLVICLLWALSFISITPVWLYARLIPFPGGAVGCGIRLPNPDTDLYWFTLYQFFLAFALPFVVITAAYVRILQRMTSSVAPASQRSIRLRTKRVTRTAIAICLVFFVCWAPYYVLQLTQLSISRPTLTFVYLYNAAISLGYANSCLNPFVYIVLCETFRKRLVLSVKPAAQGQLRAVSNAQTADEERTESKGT
Outline: as §1

[6] = molecular target: T6, Mouse urotensin (mUR2) (Mus musculus, UniProt Q8VIH9); assay: Radioligand binding, mouse urotensin mUR2 membranes, FlashPlate, [125I]-Urotensin II; details: compound at 10 μM; [125I]-Urotensin II, mouse mUR2 membranes
T6 construct: purchased Perkin Elmer Biosignal
T6 sequence (Q8VIH9 1-385): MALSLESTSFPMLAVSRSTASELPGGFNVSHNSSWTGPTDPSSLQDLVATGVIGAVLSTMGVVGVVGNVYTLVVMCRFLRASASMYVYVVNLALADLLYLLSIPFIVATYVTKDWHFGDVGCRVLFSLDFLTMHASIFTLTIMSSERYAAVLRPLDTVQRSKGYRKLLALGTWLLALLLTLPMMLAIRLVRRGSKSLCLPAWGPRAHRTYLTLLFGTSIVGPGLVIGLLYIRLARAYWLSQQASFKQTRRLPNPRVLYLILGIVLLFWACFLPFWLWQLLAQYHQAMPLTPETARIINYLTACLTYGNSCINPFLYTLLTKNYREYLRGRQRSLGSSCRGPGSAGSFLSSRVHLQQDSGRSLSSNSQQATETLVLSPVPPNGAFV
Outline: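 Cloned mouse urotensin (mUR2) receptor membranes from Perkin Elmer Biosignal were immobilized in FlashPlate microplates using a proprietary coating. Each well got 19.5 μl buffer, then 0.5 μl of DMSO, reference ligand, or compound. Adding 5 μl of [125I]-Urotensin II, diluted to 5× final concentration in binding buffer, started binding. Plates were sealed with TopSeal-A and incubated 1 hour at room temperature in the dark. Wells were counted for 30 seconds each on a TopCount after a 60-second delay, and percentage inhibition was calculated.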

[7] = molecular target: T7, Human Melanocortin (MC3) (Homo sapiens, UniProt P41968); assay: Radioligand binding, human melanocortin MC3 membranes, FlashPlate, [125I]-NDP-αMSH; details: compound at 10 μM; [125I]-NDP-αMSH, human MC3 membranes
T7 construct: purchased Perkin Elmer Biosignal
T7 sequence (P41968 whole entry): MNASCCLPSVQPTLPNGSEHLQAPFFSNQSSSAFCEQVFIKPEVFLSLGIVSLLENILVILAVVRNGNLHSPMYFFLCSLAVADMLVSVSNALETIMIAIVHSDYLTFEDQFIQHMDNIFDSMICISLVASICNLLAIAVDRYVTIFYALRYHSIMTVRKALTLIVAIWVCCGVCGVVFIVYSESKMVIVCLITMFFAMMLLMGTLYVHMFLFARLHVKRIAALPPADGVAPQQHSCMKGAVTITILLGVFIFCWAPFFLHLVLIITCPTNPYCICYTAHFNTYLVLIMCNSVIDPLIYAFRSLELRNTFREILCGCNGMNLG
Outline: as §1

[8] = molecular target: T8, Human melanocortin (MC5) (Homo sapiens, UniProt P33032); assay: Radioligand binding, human melanocortin MC5 membranes, FlashPlate, [125I]-NDP-αMSH; details: compound at 10 μM; [125I]-NDP-αMSH, human MC5 membranes
T8 construct: purchased Perkin Elmer Biosignal
T8 sequence (P33032 whole entry): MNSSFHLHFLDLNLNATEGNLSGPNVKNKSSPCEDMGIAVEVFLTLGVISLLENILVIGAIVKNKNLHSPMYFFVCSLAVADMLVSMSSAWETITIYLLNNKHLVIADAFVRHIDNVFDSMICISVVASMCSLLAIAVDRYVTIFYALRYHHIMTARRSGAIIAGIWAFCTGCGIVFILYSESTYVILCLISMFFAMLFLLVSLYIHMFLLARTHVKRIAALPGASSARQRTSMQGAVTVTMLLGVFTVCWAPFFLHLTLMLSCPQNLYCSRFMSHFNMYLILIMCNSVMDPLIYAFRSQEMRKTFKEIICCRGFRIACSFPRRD
Outline: as §1

[9] = molecular target: T9, Human neurokinin (NK1) (Homo sapiens, UniProt P25103); assay: Radioligand binding, human neurokinin NK1 membranes, filtration, [125I]-Substance P; details: compound at 10 μM; [125I]-Substance P, human NK1 membranes
T9 construct: purchased Perkin Elmer Biosignal
T9 sequence (P25103 whole entry): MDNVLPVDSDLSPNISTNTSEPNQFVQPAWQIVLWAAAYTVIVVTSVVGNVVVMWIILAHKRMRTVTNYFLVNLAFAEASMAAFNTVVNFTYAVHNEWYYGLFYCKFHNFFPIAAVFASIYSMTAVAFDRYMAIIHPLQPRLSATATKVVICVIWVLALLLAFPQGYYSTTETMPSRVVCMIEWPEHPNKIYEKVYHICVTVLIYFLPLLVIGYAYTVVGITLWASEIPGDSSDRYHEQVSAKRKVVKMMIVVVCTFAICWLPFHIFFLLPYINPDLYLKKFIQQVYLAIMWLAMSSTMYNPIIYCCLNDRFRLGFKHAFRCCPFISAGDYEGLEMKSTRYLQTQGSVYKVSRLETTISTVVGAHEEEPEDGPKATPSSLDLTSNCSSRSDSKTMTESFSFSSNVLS
Outline: as §2

[10] = molecular target: T10, Human μ-opioid (MOP) (Homo sapiens, UniProt P35372); assay: Radioligand binding, human μ-opioid (MOP) membranes, FlashPlate, [3H]-Naloxone; details: compound at 10 μM; [3H]-Naloxone, human MOP membranes
T10 construct: purchased Perkin Elmer Biosignal
T10 sequence (P35372 whole entry): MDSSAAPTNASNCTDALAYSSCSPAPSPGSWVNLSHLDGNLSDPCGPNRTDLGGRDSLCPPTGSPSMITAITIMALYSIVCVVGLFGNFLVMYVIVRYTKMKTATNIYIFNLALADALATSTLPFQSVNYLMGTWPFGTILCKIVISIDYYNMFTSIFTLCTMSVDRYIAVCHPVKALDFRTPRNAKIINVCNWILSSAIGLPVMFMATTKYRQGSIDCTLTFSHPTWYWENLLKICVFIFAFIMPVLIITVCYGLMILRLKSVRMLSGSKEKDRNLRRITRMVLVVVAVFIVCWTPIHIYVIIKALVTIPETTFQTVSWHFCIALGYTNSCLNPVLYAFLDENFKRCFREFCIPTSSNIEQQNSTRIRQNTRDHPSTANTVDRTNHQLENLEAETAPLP
Outline: as §1

[11] = molecular target: T11, Human neuropeptide Y (NPY-Y1) (Homo sapiens, UniProt P25929); assay: Radioligand binding, human neuropeptide Y NPY-Y1 membranes, FlashPlate, [125I]-PYY; details: compound at 10 μM; [125I]-PYY, human NPY-Y1 membranes
T11 construct: purchased Perkin Elmer Biosignal
T11 sequence (P25929 1-384): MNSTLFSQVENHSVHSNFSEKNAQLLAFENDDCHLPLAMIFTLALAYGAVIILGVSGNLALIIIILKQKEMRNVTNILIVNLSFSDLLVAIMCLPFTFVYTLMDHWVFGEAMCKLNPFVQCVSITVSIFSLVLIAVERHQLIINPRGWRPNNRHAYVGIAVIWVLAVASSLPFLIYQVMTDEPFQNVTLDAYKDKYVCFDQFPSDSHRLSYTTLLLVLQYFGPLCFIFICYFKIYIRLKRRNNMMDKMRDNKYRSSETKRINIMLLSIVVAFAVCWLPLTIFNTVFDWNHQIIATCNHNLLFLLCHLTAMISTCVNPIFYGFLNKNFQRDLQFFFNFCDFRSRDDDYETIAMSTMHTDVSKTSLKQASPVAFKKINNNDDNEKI
Outline: as §1

T1 sequence (P32245 whole entry): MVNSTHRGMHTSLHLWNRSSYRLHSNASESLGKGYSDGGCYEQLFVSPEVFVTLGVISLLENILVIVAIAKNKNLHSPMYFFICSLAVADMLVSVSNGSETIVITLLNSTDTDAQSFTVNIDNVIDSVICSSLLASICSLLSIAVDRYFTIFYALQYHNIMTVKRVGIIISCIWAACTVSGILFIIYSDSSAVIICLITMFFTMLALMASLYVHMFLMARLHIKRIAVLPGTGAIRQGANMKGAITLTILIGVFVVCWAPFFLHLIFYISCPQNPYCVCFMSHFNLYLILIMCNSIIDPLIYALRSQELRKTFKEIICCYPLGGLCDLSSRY

SMILES	A4: inhibition of radioligand binding [1]	A1: inhibition of radioligand binding [2]	A10: inhibition of radioligand binding [3]	A2: inhibition of radioligand binding [4]	A6: inhibition of radioligand binding [5]	A11: inhibition of radioligand binding [6]	A3: inhibition of radioligand binding [7]	A5: inhibition of radioligand binding [8]	A8: inhibition of radioligand binding [9]	A7: inhibition of radioligand binding [10]	A9: inhibition of radioligand binding [11]
N=C(N)NCCC(=O)NC1C(OCc2ccc(-c3ccccc3)cc2)OC(COCc2ccccc2)C(O)C1OCc1ccc2ccccc2c1 (stereo not shown) [compound 412]	+ (“+” indicates greater than 50% inhibition at 10 μM)	− (“−” indicates less than 50% inhibition at 10 μM)	+ (“+” indicates greater than 50% inhibition at 10 μM)	− (“−” indicates less than 50% inhibition at 10 μM)	+ (“+” indicates greater than 50% inhibition at 10 μM)	− (“−” indicates less than 50% inhibition at 10 μM)	+ (“+” indicates greater than 50% inhibition at 10 μM)	+ (“+” indicates greater than 50% inhibition at 10 μM)	+ (“+” indicates greater than 50% inhibition at 10 μM)	− (“−” indicates less than 50% inhibition at 10 μM)	− (“−” indicates less than 50% inhibition at 10 μM)
N=C(N)NCCC(=O)NC1C(OCc2ccc(-c3ccccc3)cc2)OC(COCc2ccc(Cl)cc2)C(O)C1OCc1ccc2ccccc2c1 (stereo not shown) [compound 413]	+ (“+” indicates greater than 50% inhibition at 10 μM)	− (“−” indicates less than 50% inhibition at 10 μM)	+ (“+” indicates greater than 50% inhibition at 10 μM)	− (“−” indicates less than 50% inhibition at 10 μM)	+ (“+” indicates greater than 50% inhibition at 10 μM)	− (“−” indicates less than 50% inhibition at 10 μM)	+ (“+” indicates greater than 50% inhibition at 10 μM)	+ (“+” indicates greater than 50% inhibition at 10 μM)	+ (“+” indicates greater than 50% inhibition at 10 μM)	− (“−” indicates less than 50% inhibition at 10 μM)	− (“−” indicates less than 50% inhibition at 10 μM)
N=C(N)NCCC(=O)NC1C(OCc2ccc(-c3ccccc3)cc2)OC(COCc2ccc3ccccc3c2)C(O)C1OCc1ccc(-c2ccccc2)cc1 (stereo not shown) [compound 414]	− (“−” indicates less than 50% inhibition at 10 μM)	− (“−” indicates less than 50% inhibition at 10 μM)	− (“−” indicates less than 50% inhibition at 10 μM)	− (“−” indicates less than 50% inhibition at 10 μM)	− (“−” indicates less than 50% inhibition at 10 μM)	− (“−” indicates less than 50% inhibition at 10 μM)	− (“−” indicates less than 50% inhibition at 10 μM)	+ (“+” indicates greater than 50% inhibition at 10 μM)	+ (“+” indicates greater than 50% inhibition at 10 μM)	− (“−” indicates less than 50% inhibition at 10 μM)	− (“−” indicates less than 50% inhibition at 10 μM)
N=C(N)NCCC(=O)NC1C(OCc2ccc(-c3ccccc3)cc2)OC(COCc2ccccc2)C(O)C1OCc1ccc(-c2ccccc2)cc1 (stereo not shown) [compound 415]	+ (“+” indicates greater than 50% inhibition at 10 μM)	− (“−” indicates less than 50% inhibition at 10 μM)	− (“−” indicates less than 50% inhibition at 10 μM)	− (“−” indicates less than 50% inhibition at 10 μM)	+ (“+” indicates greater than 50% inhibition at 10 μM)	− (“−” indicates less than 50% inhibition at 10 μM)	+ (“+” indicates greater than 50% inhibition at 10 μM)	+ (“+” indicates greater than 50% inhibition at 10 μM)	+ (“+” indicates greater than 50% inhibition at 10 μM)	− (“−” indicates less than 50% inhibition at 10 μM)	− (“−” indicates less than 50% inhibition at 10 μM)
N=C(N)NCCC(=O)NC1C(OCc2ccc(-c3ccccc3)cc2)OC(COCc2ccc(Cl)cc2)C(O)C1OCc1ccc(-c2ccccc2)cc1 (stereo not shown) [compound 416]	+ (“+” indicates greater than 50% inhibition at 10 μM)	− (“−” indicates less than 50% inhibition at 10 μM)	+ (“+” indicates greater than 50% inhibition at 10 μM)	− (“−” indicates less than 50% inhibition at 10 μM)	+ (“+” indicates greater than 50% inhibition at 10 μM)	− (“−” indicates less than 50% inhibition at 10 μM)	+ (“+” indicates greater than 50% inhibition at 10 μM)	+ (“+” indicates greater than 50% inhibition at 10 μM)	+ (“+” indicates greater than 50% inhibition at 10 μM)	− (“−” indicates less than 50% inhibition at 10 μM)	− (“−” indicates less than 50% inhibition at 10 μM)
